Measurements from patent US20130287721A1, “METHOD FOR COUNTERACTING AMMONIA MALODOR” (Firmenich SA, priority 2010, published 2013).

System: ammonia lateralization threshold
Experiment: Panel evaluation of the lateralization threshold (LT) of ammonia alone and in combination with a PRM
Format: in vivo, panellists
Design: LT of ammonia Panellist 1 Cond II / LT of ammonia Panellist 2 Cond II / LT of ammonia Panellist 3 Cond II: unit not given here
Conditions: for LT of ammonia Panellist 1 Cond II / LT of ammonia Panellist 2 Cond II / LT of ammonia Panellist 3 Cond II / LT of ammonia Panellist 1 %Δ / LT of ammonia Panellist 2 %Δ / LT of ammonia Panellist 3 %Δ: Table 4; for LT of ammonia Panellist 1 Cond II / LT of ammonia Panellist 2 Cond II / LT of ammonia Panellist 3 Cond II: ammonia stimulus combined with PRM stimulus; for LT of ammonia Panellist 1 %Δ / LT of ammonia Panellist 2 %Δ / LT of ammonia Panellist 3 %Δ / Ammonia LT Panellist 1 % Δ / Ammonia LT Panellist 2 % Δ / Ammonia LT Panellist 3 % Δ: change of ammonia LT, Cond II (with PRM) vs Cond I (ammonia alone); for Ammonia LT Panellist 1 Cond II / Ammonia LT Panellist 2 Cond II / Ammonia LT Panellist 1 % Δ / Ammonia LT Panellist 2 % Δ / Ammonia LT Panellist 3 Cond II / Ammonia LT Panellist 3 % Δ: Table 3; for Ammonia LT Panellist 1 Cond II / Ammonia LT Panellist 2 Cond II / Ammonia LT Panellist 3 Cond II: ammonia stimulus combined with PRM stimulus (concentration of Table 2 in propylene glycol)
Experimental: An ammonia stimulus test range was prepared. To ensure a stable level of ammonia in each stimulus, the ammonia headspace was stabilized by combining appropriate concentrations of NH4Cl, NaOH and H2O instead of simply adding ammonia directly to a solvent. Different concentrations of ammonia were used to create a stimulus test range by utilizing the appropriate amount of each compound (see Table 1).
A stimulus was also prepared for each PRM which was intended to be combined with ammonia stimuli. As the PRMs differed in their potency and to ensure that each PRM stimulus had approximately the same potency, an abbreviated dose response curve was constructed for each PRM by having four panellists evaluate the intensity of five concentration levels of the PRM dissolved in propylene glycol in duplicate. Assessments were made relative to the reference of 170 ppm allyl heptanoate in propylene glycol, which intensity was set to 0. Based upon the average scores, a rough intensity match was made for each PRM utilizing one of the following criteria. If one of the tested concentration levels averaged at or near zero, this concentration level was selected. If the rating created any sort of reasonable curve, the equation of the curve was determined and solved for 0 to arrive at the PRM assessment level. If multiple concentration levels were equally distant form the match level, then the standard deviation across individuals was considered, as were the individual responses. In general, the PRM level was selected to be on average close to 0 with low variability, with two panellists saying the level was a bit too high and the other two panellists saying the level was a bit too low. The PRMs for which a stimulus was prepared are listed in Table 2 below, together with the concentration of the PRM in the stimulus.
Volunteers were screened for their ability to lateralize ammonia stimuli. For the screening, the experimenter measured the participant's lateralization threshold for ammonia using a two-alternative forced choice modified staircase procedure employing a four-in, two-down, one-up rule with a five reversal criterion, as described below, On each trial volunteers were presented with a pair of glass bottles with clean, custom-made nose pieces. One bottle contained ammonia at a particular level selected from Table 1 and the other bottle contained water only. Each bottle was applied to one nostril using the nose piece. The volunteers were asked to identify which bottle in each pair contained ammonia.
If the ammonia stimulus was correctly identified in four consecutive trials, the concentration was decreased by one level of Table 1 on the next trial. If an incorrect answer was provided, the concentration was increased by one level of Table 1. Location (left or right nostril) of the stimulus was randomized over presentations. Testing continued until one of the following occurred: • 1) Five reversals (correct decision followed by an incorrect decision or vice versa) were achieved; • 2) The volunteer gave a correct response twice in a row at the lowest level of Table 1; or • 3) The volunteer gave an incorrect response at the highest level of Table 1.
In the first circumstance, threshold values were then calculated by averaging the last four reversals. In the second circumstance, the LT was the lowest level. In the third circumstance, the LT could not be calculated. Volunteers were considered qualified to participate in the panel evaluation if their LT could be calculated (Circumstance 1).
The LT of ammonia, both alone and in combination with diverse PRM, was determined. A repeated-measures design was used, such that the LT with and without the addition of a PRM were both measured at the same time in one person by utilizing interwoven stimuli presentations. The LT for each PRM was measured by two to three panellists, the third panellists being included if the results of the first to panellists disagreed. […]

Compound | LT of ammonia Panellist 1 Cond II | LT of ammonia Panellist 2 Cond II | LT of ammonia Panellist 3 Cond II | LT of ammonia Panellist 1 %Δ [%] | LT of ammonia Panellist 2 %Δ [%] | LT of ammonia Panellist 3 %Δ [%] | Ammonia LT Panellist 1 Cond II [ppm] | Ammonia LT Panellist 2 Cond II [ppm] | Ammonia LT Panellist 1 % Δ [%] | Ammonia LT Panellist 2 % Δ [%] | Ammonia LT Panellist 3 Cond II [ppm] | Ammonia LT Panellist 3 % Δ [%]
3-Methyl-(4/5)-cyclopentadecenone [Muscenone ™] | 11.1 | 11.1 | 11.1 | 454 | 77 | 214 |  |  |  |  |  | 
C=C1CCCC(C)(C)C1C(=O)/C=C/C (racemic) [Gamma damascone, (+−)-(E)-1-(2,2-dimethyl-6-methylene-1-cyclohexyl)-2-buten-1-one] | 6.3 | 19.6 | 11.1 | 214 | 885 | 456 |  |  |  |  |  | 
CC1C(=O)O[C@H]2C[C@@H](C)CC[C@H]12 (mixture of isomers) [Koumalactone ®, (3aRS,6SR,7aSR)-perhydro-3,6-dimethyl-benzo[B]furan-2-one] |  |  |  |  |  |  | 19.1 | 71.9 | 162 | 214 |  | 
CCCCC[C@H]1CCC[C@H]1O (relative stereo) [Cis-2-pentyl-1-cyclopentanol] | 2.0 | 0.4 | 3.5 | 216 | 90 | 212 |  |  |  |  |  | 
C[C@H]1[C@@H]2CC(C[C@@]13C=CC(=O)CC3)C2(C)C (single isomer, unassigned; (+)) | 0.4 | 0.6 | 0.6 | 75 | 417 | 215 |  |  |  |  |  | 
CCC1CC(C)(C)CCC1=O (stereo not shown) [2-Ethyl-4,4-dimethyl-1-cyclohexanone] | 3.5 | 2.0 | 2.0 | 212 | 471 | 217 |  |  |  |  |  | 
C=C(CC(C)CO)C1CC=C(C)C1(C)C (stereo not shown) [2-Methyl-4-(2,2,3-trimethyl-3-cyclopenten-1-yl)-4-penten-1-ol] | 3.5 | 3.5 | 2.0 | 212 | 212 | 852 |  |  |  |  |  | 
CC(=O)OCCC1CCCCC1 [2-cyclohexylethyl acetate] | 2.0 | 1.1 | 1.1 | 848 | 465 | 842 |  |  |  |  |  | 
CC(C)CCCC(C)CCO (stereo not shown) [3,7-Dimethyl-1-octanol] | 6.3 | 3.5 | 3.5 | 214 | 77 | 77 |  |  |  |  |  | 
CCCCC(CC)CCC(C)O (stereo not shown) [5-ethyl-2-nonanol] | 19.6 | 6.2 | 6.3 | 885 | 452 | 214 |  |  |  |  |  | 
CCCc1ccc2c(c1)OCC(=O)CO2 [7-Propyl-2H,4H-1,5-benzodioxepin-3-one] | 11.1 | 6.3 | 3.5 | 456 | 453 | 212 |  |  |  |  |  | 
C[C@@H]1CC[C@H]2[C@H](C)C(=O)O[C@@H]2C1 [(+)-(3S,3AS,6R,7AR)-perhydro-3,6-dimethyl-benzo[B]furan-2-one] | 19.6 | 3.5 | 11.1 | 885 | 4929 | 1682 |  |  |  |  |  | 
CC/C=C\CCO [(Z)-3-hexen-1-ol] |  |  |  |  |  |  | 2.3 | 225.5 | −68 | 0 | 56.3 | 671
CCC/C(C)=C\COC(C)=O [Aladinate ®, (Z)-3-methyl-2-hexenyl acetate] |  |  |  |  |  |  | 19.1 | 71.9 | −16 | 0 |  | 
C=CCOC(=O)CCCCCC [Allyl heptanoate] |  |  |  |  |  |  | 71.9 | 225.5 | 28 | 20 |  | 
CC(C)=CCC[C@](C)(O)[C@@H]1CC=C(C)CC1 [Alpha-bisabolol] |  |  |  |  |  |  | 7.3 | 172.7 | 213 | 655 |  | 
CC(OC=O)C1CCCC(C)(C)C1 (stereo not shown) [Aphermate] |  |  |  |  |  |  | 6.1 | 71.9 | −68 | −59 |  | 
CCCC(C)C(=O)OCC (stereo not shown) [Applinate ®, Ethyl 2-methyl-pentanoate] |  |  |  |  |  |  | 2.3 | 55.1 | −62 | −23 |  | 
CC=CC(=O)C1=C(C)CCCC1(C)C [Beta Dorinone ®, 1-(2,6,6-trimethyl-1-cyclohexen-1-yl)-2-buten-1-one] | 11.1 | 19.6 | 2.0 | 214 | 885 | 1558 |  |  |  |  |  | 
CCCCOC(C)=O [Butyl acetate] |  |  |  |  |  |  | 7.3 | 225.5 | 213 | 1079 |  | 
C=C(C)C1CC=C(C)C(=O)C1 (stereo not shown) [Carvone] |  |  |  |  |  |  | 19.1 | 225.5 | 214 | 214 |  | 
CC1(C)CCCC2(C)C1CCC1(C)OCCC12 (stereo not shown) [Cetalox ®, Dodecahydro-3a,6,6,9a-tetramethyl-naphtho[2,1-b]furan] |  |  |  |  |  |  | 2.3 | 225.5 | −90 | 2988 | 2.3 | −68
CC(C)=CCCC(C)CCO (stereo not shown) [Citronellol] |  |  |  |  |  |  | 60.0 | 225.5 | 2978 | 20 |  | 
COc1cc(C)ccc1O [Creosol H] |  |  |  |  |  |  | 17.9 | 7.3 | −68 | −90 |  | 
C=CCOC(=O)COC1CCCCC1 [Cyclogalbanate, Allyl (cyclohexyloxy)-acetate] | 2.0 | 6.3 | 3.5 | 216 | 453 | 212 |  |  |  |  |  | 
C/C=C/C(=O)C1C(C)C=CCC1(C)C (stereo not shown) [Delta damascone ®, Delta damascone] |  |  |  |  |  |  | 7.3 | 225.5 | −68 | 214 | 7.3 | −96
